Several values for one entry are separate records, joined by “and”; a condition that tells them apart may be missing. Equal entries are not always repeated. Entries after “also recorded” stand apart in the source; their conditions may differ.
Tests used:
Assay type in all cases: physicochemical
[1] = Drug solubilization by salt formation in acid; conditions: T in °C in parentheses in the cell (20.1 or 21.1)
Description: The base form of each drug was suspended in deionized water and titrated with 0.1 N hydrochloric acid (Fisher Scientific, Hampton, NH) while stirring until all the base was solubilized and the volume adjusted to a final concentration of 2.5 mg/mL. The resulting solution was frozen, then lyophilized to yield solid drug-hydrochloride salt or used in its solubilized form for loading into DC Bead LUMI. […] Doxorubicin.HCl was readily solubilized and used without modification. […] A ZORBAX Eclipse Plus C8 reversed-phase column (Agilent) and UV detector at wavelength of 230 nm were used for GS-9620 analysis. The decomposition product of GS-9620 was analyzed with reversed phase high-performance liquid chromatography (Rp-HPLC) and LC/MS.

[2] = Washing of drug-loaded beads with deionized water and microscopic appearance
Description: (§1) Drug loading was performed in triplicate as previously reported[45] with slight modifications. […] Washing of beads is often a critical step in drug release studies as any drug left unbound to the beads affects the release profile and exaggerates the early burst release. […] However, washing was discontinued for TLR drugs as drug was continually observed even after multiple washes. […] The amount of drug loaded at the specified time points was calculated by subtracting the amount of drug remaining from the initial amount of drug in the loading solution and the cumulative amount of drug withdrawn for sampling. The maximum drug loaded in the beads was calculated once no further change in the concentration in the loading solution could be measured and before washing the beads. The relative percent drug loaded was defined as the maximum amount of drug loaded as a percent of the amount of SO3^- ions available in the beads on a molar basis using the following formula and the results are presented as the mean ± SD.

[3] = Drug loading into DC Bead LUMI
Description: as §1, with “DC Bead LUMI was analyzed for its elemental composition by MEDAC Inc. […] Drug” for “Drug”

[4] = Drug release from DC Bead LUMI in saline; conditions: for release in saline from DC Bead LUMI after multiple washes in deionized water: single replicates
Description: […] Briefly, drug-loaded DC Bead LUMI or LC Bead (62.5 µL) were placed in vessels with 50 mL of saline ([…], pH 7.4) and were agitated with upright rocking motion at a set maximum rocking speed of 10 (70 rpm) for 144 h at 37 °C using Ward's® Rotating Mixer. At scheduled time intervals identical to the loading time points, 1 mL of release media was withdrawn and used for drug quantification. To maintain 50 mL total elution volume, 1 mL of fresh saline pre heated to 37 °C was replaced at each timepoint. […] 2.4. The cumulative amount of drug released at each time point was calculated by multiplying the concentration of each sample aliquot by the total volume (50 mL) of release media and adding the sum of the amount of drug removed for sampling at prior time points. […] The 50 mL volume was chosen to ensure infinite sink conditions where the maximum possible concentration of eluted drug would be at least 10 times more dilute than the maximum solubility. This ensures the rate of release is not affected by solution concentration but is only a function of interactions of the bead, drug, and saline.

With `CC(C)Cn1cnc2c(N)nc3ccccc3c21` [IMQ, imiquimod] the “pH at which each drug dissolved for loading” value [1] was 2.06 (20.1), the “removal of drug from beads by repeated washing with deionized water” value ([2]; DC Bead LUMI) was “partially removed” and the “aggregation of drug during washing / elution” value ([2]; deionized water and saline, microscopy) was “Aggregation of IMQ was observed; also recorded: formed aggregates; also recorded: exhibited aggregation”. For the same compound, the “Relative percent drug loaded in DC Bead LUMI over time” value ([3]; 5 min, single replicates) was 27.7169% and 54.7567% and 47.2582%, the “Relative percent drug loaded in DC Bead LUMI over time” value ([3]; 15 min, single replicates) was 44.3244% and 64.1912% and 77.4846% and the “Relative percent drug loaded in DC Bead LUMI over time” value ([3]; 30 min, single replicates) was 53.7652% and 98.7583% and 64.7248%. For the same compound, the “Relative percent drug loaded in DC Bead LUMI over time” value ([3]; 45 min, single replicates) was 63.5604% and 86.8486% and 80.4348%, the “Relative percent drug loaded in DC Bead LUMI over time” value ([3]; 60 min, single replicates) was 62.6391% and 89.327% and 89.6722% and the “Relative percent drug loaded in DC Bead LUMI over time” value ([3]; 120 min, single replicates) was 76.6569% and 94.7702% and 91.6603%. The “Relative percent drug loaded in DC Bead LUMI over time” value ([3]; 180 min, single replicates) was 84.3868% and 95.4708% and 91.4628%, the “Relative percent drug loaded in DC Bead LUMI over time” value ([3]; 240 min, single replicates) was 88.4335% and 96.0638% and 91.7809% and the “Relative percent drug loaded in DC Bead LUMI over time” value ([3]; 300 min, single replicates) was 89.1562% and 94.7965% and 91.1063%. For the same compound, the “Relative percent drug loaded in DC Bead LUMI over time” value ([3]; 360 min, single replicates) was 89.8821% and 93.7278% and 90.6691%, the “Relative percent drug loaded in DC Bead LUMI over time” value ([3]; 420 min, single replicates) was 89.552% and 95.0881% and 90.3963% and the “Relative percent drug loaded in DC Bead LUMI over time” value ([3]; 480 min, single replicates) was 88.9036% and 95.9382% and 95.3273%. For the same compound, the “Relative percent drug loaded in DC Bead LUMI over time” value ([3]; 1440 min, single replicates) was 88.6238% and 94.7298% and 89.6159%, the “Relative percent drug loaded in DC Bead LUMI over time” value ([3]; 2880 min, single replicates) was 89.5863% and 97.1979% and 88.3669% and the “Relative percent drug loaded in DC Bead LUMI over time” value ([3]; 4320 min, single replicates) was 89.4163% and 95.3897% and 90.7133%. For the same compound, the “Relative percent drug loaded in DC Bead LUMI over time” value ([3]; 8640 min, single replicates) was 89.5369% and 92.0678% and 86.7361%, the “loading behaviour” value ([3]; DC Bead LUMI) was “Fast loading” and the “Relative percent drug loaded (maximum, percent of SO3− available on a molar basis)” value ([3]; DC Bead LUMI, mean (n = 3)) was 95% and 94.66%. The “equivalent of drug loaded to sulfonated bead” value ([3]; DC Bead LUMI, mean ± SD) was 0.27 ± 0.01 mM drug/ml beads, the Maximum drug loaded ([3]; DC Bead LUMI, mean ± SD, n = 3, base form except Dox (salt form)) was 65.28 ± 3.09 mg drug/ml beads and the “Maximum drug loaded (Triplicate), %” value ([3]; DC Bead LUMI, single replicates) was 89.8821% and 98.7583% and 95.3273%. The “Drug: sulfonate” value ([3]; molar ratio at maximum loading, DC Bead LUMI) was 0.946, the “Theoretical maximum loading level based on SO3− contents” value ([3]; per mL DC Bead LUMI, assuming 1:1 drug to sulfonate) was 68.97 mg and the “release in saline from DC Bead LUMI after multiple washes in deionized water” value (shortened to “release in saline from DC Bead LUMI”) ([4]; 5 min) was 3.738 mg/mL of beads and 1.905 mg/mL of beads and 0.7403 mg/mL of beads. For the same compound, the “release in saline from DC Bead LUMI” value ([4]; 15 min) was 4.599 mg/mL of beads and 2.598 mg/mL of beads and 1.25 mg/mL of beads, the “release in saline from DC Bead LUMI” value ([4]; 30 min) was 6.014 mg/mL of beads and 2.518 mg/mL of beads and 1.755 mg/mL of beads and the “release in saline from DC Bead LUMI” value ([4]; 45 min) was 5.636 mg/mL of beads and 3.25 mg/mL of beads and 2.648 mg/mL of beads. For the same compound, the “release in saline from DC Bead LUMI” value ([4]; 60 min) was 6.005 mg/mL of beads and 3.196 mg/mL of beads and 2.336 mg/mL of beads, the “release in saline from DC Bead LUMI” value ([4]; 120 min) was 7.034 mg/mL of beads and 4.188 mg/mL of beads and 2.86 mg/mL of beads and the “release in saline from DC Bead LUMI” value ([4]; 180 min) was 9.042 mg/mL of beads and 4.426 mg/mL of beads and 3.116 mg/mL of beads. The “release in saline from DC Bead LUMI” value ([4]; 240 min) was 8.512 mg/mL of beads and 4.6972 mg/mL of beads and 3.19 mg/mL of beads, the “release in saline from DC Bead LUMI” value ([4]; 300 min) was 8.8991 mg/mL of beads and 4.841 mg/mL of beads and 3.452 mg/mL of beads and the “release in saline from DC Bead LUMI” value ([4]; 360 min) was 9.596 mg/mL of beads and 5.306 mg/mL of beads and 3.529 mg/mL of beads. The “release in saline from DC Bead LUMI” value ([4]; 420 min) was 9.49 mg/mL of beads and 5.808 mg/mL of beads and 4.0861 mg/mL of beads, the “release in saline from DC Bead LUMI” value ([4]; 480 min) was 9.552 mg/mL of beads and 5.445 mg/mL of beads and 3.722 mg/mL of beads and the “release in saline from DC Bead LUMI” value ([4]; 1440 min) was 10.8637 mg/mL of beads and 7.881 mg/mL of beads and 6.056 mg/mL of beads. For the same compound, the “release in saline from DC Bead LUMI” value ([4]; 2880 min) was 12.3732 mg/mL of beads and 7.686 mg/mL of beads and 6.267 mg/mL of beads, the “release in saline from DC Bead LUMI” value ([4]; 4320 min) was 15.5973 mg/mL of beads and 8.751 mg/mL of beads and 7.964 mg/mL of beads and the “release in saline from DC Bead LUMI” value ([4]; 8640 min) was 14.5448 mg/mL of beads and 10.1106 mg/mL of beads and 7.947 mg/mL of beads. For the same compound, the “release behaviour in saline” value ([4]; DC Bead LUMI) was “rapid release”.

Reference: PMC9763333, “In vitro characterization of immune modulating drug-eluting immunobeads towards transarterial embolization in cancer” (Scientific Reports, 2022)
